Reference: patent US10040781B2, “Tank-binding kinase inhibitor compounds” (Gilead Sciences, Inc., priority 2014, dated 2018)
Like-named read-outs stand apart in the source and are kept apart here.

Assays:
IKKε = IKKε (Homo sapiens (Human), UniProt Q14164); experiment: IKKε TR-FRET enzymatic assay; type: biochemical; conditions: read-out: IKKe IC50
hJAK2 = hJAK2 (Homo sapiens (Human), UniProt O60674); experiment: hJAK2 LANCE TR-FRET enzymatic assay; type: biochemical; conditions: read-out: JAK2 IC50
Sequence of hJAK2 (O60674 whole entry): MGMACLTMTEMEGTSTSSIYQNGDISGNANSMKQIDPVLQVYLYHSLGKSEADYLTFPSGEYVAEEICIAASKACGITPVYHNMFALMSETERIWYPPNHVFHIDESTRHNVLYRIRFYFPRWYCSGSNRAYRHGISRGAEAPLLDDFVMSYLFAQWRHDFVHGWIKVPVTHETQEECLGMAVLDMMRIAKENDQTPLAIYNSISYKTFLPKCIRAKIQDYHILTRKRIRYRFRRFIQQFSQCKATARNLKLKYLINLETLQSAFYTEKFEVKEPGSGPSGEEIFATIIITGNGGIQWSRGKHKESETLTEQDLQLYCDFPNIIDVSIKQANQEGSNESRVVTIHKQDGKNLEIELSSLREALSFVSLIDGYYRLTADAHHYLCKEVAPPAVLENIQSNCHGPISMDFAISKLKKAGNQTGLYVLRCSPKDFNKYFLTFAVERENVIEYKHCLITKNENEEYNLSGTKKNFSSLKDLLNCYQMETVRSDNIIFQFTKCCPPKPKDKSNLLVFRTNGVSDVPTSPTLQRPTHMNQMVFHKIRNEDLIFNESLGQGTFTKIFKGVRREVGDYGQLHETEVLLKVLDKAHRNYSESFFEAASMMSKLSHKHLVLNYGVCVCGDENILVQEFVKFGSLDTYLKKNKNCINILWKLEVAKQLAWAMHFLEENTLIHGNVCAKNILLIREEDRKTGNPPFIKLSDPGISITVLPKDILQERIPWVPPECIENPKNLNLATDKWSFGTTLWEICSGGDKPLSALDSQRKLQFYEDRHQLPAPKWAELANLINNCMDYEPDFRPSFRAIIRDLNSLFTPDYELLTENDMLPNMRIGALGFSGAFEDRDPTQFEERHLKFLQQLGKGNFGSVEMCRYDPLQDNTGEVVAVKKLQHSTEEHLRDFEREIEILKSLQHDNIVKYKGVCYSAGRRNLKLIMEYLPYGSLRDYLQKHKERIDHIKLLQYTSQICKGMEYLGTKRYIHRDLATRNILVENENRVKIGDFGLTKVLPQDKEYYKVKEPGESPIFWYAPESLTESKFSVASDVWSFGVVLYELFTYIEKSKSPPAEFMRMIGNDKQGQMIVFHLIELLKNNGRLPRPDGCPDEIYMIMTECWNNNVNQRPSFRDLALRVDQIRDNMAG

TBK1 = TBK1 (Homo sapiens (Human), UniProt Q9UHD2); experiment: TBK1 TR-FRET enzymatic assay;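 also: phosphorylation of a biotinylated Ser/Thr peptide by purified full-length recombinant TBK1, read by TR-FRET after 240 min at 25 °C, IC50 is the geometric mean of at least four runs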
Sequence of TBK1 (Q9UHD2 whole entry): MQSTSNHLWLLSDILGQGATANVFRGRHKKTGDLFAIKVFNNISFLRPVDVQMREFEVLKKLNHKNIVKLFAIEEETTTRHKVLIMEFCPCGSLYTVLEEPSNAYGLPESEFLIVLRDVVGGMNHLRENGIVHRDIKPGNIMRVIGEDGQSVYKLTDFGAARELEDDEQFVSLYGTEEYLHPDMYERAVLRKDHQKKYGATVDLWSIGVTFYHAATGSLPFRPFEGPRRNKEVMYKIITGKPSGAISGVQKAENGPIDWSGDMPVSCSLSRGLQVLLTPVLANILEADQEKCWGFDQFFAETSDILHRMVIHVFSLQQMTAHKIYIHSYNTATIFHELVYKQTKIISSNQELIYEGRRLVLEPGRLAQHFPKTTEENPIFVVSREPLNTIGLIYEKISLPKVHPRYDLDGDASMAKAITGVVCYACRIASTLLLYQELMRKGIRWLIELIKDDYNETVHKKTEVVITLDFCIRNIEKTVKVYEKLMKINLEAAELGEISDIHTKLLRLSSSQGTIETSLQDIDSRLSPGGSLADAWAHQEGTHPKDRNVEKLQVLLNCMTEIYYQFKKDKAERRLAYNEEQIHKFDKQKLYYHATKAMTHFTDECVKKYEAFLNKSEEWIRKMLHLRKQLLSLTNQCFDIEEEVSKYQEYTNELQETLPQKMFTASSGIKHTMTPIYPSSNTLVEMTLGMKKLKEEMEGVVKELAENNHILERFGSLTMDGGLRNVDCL

[1] = TR-FRET, 2×Km ATP, geometric mean of minimum four determinations

Sequence of IKKε (Q14164 whole entry): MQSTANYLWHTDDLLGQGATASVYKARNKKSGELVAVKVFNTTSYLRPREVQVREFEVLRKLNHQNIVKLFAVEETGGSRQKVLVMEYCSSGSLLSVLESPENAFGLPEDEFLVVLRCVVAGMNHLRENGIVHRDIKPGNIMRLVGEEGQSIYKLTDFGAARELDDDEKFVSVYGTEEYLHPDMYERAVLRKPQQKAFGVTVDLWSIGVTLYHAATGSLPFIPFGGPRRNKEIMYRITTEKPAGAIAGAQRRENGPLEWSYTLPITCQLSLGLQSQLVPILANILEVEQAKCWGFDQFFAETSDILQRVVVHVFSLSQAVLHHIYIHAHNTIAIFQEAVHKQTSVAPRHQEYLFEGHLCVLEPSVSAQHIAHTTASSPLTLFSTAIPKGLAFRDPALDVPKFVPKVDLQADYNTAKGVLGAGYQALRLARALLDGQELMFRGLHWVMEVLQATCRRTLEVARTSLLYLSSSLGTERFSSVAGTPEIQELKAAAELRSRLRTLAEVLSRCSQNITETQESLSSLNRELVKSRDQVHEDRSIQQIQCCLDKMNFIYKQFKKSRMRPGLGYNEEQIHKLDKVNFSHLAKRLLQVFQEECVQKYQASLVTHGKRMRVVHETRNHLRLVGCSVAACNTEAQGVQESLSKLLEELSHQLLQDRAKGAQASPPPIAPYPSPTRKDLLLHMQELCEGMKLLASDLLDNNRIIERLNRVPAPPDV

Compound	IC50 (IKKε)	IC50 (hJAK2)	IC50 (TBK1)	IC50 (IKKε; [1])
N#Cc1cc(-c2ncnc(Nc3ccc(N4CCN(C5COC5)CC4)nc3)n2)ccc1OC1CCOCC1 [Example 43, 5-(4-((6-(4-(oxetan-3-yl)piperazin-1-yl)pyridin-3-yl)amino)-1,3,5-triazin-2-yl)-2-((tetrahydro-2H-pyran-4-yl)oxy)benzonitrile]	0.015 µM	> 1 µM	0.007 µM	–
C[C@H](O)C(=O)N1CC[C@H](Oc2ccc(-c3ncnc(Nc4cnc(N5CCN(C6COC6)CC5)c(F)c4)n3)cc2C#N)[C@H](F)C1 [Example 358, 2-(((3R,4S)-3-fluoro-1-((S)-2-hydroxypropanoyl)piperidin-4-yl)oxy)-5-(4-((5-fluoro-6-(4-(oxetan-3-yl)piperazin-1-yl)pyridin-3-yl)amino)-1,3,5-triazin-2-yl)benzonitrile]	0.011 µM	≥ 1 µM	0.006 µM	–
C[C@H](O)C(=O)N1CCC(Oc2ccc(-c3ncnc(Nc4ccc(N5CCO[C@@H](CO)C5)cc4)n3)cc2C#N)CC1 [Example 225, 5-(4-((4-((R)-2-(hydroxymethyl)morpholino)phenyl)amino)-1,3,5-triazin-2-yl)-2-((1-((S)-2-hydroxypropanoyl)piperidin-4-yl)oxy)benzonitrile]	0.022 µM	≥ 1 µM	0.008 µM	–
C[C@H](O)C(=O)N1CC[C@H](Oc2ccc(-c3ncnc(Nc4cnn(C)c4CO)n3)cc2C#N)[C@H](F)C1 [Example 565, 2-(((3R,4S)-3-fluoro-1-((S)-2-hydroxypropanoyl)piperidin-4-yl)oxy)-5-(4-((5-(hydroxymethyl)-1-methyl-1H-pyrazol-4-yl)amino)-1,3,5-triazin-2-yl)benzonitrile]	–	≥ 1 µM	0.09 µM	0.126 µM
N#Cc1cc(-c2ncnc(Nc3ccc(N4CCN(C5COC5)CC4)cc3)n2)ccc1O[C@@H]1CCN(C=O)C1 [Example 95, (R)-2-((1-formylpyrrolidin-3-yl)oxy)-5-(4-((4-(4-(oxetan-3-yl)piperazin-1-yl)phenyl)amino)-1,3,5-triazin-2-yl)benzonitrile]	0.021 µM	0.377 µM	0.007 µM	–

Compounds with a lower IC50 (hJAK2), results first:

IC50 (IKKε)	IC50 (hJAK2)	IC50 (TBK1)	IC50 (IKKε; [1])	Compound
0.005 µM	0.309 µM	0.006 µM	–	C[C@H](O)C(=O)N1CC[C@H](Oc2ccc(-c3ncnc(Nc4cnn(C5CCOCC5)c4)n3)cc2C#N)[C@H](F)C1 [Example 354, 2-(((3R,4S)-3-fluoro-1-((S)-2-hydroxypropanoyl)piperidin-4-yl)oxy)-5-(4-((1-(tetrahydro-2H-pyran-4-yl)-1H-pyrazol-4-yl)amino)-1,3,5-triazin-2-yl)benzonitrile]
–	0.221 µM	0.005 µM	0.007 µM	CS(=N)(=O)c1ccc(Nc2ncnc(-c3ccc(O[C@H]4CCN(C=O)CC4(F)F)c(C#N)c3)n2)cc1 (stereo partly drawn) [Example 482, 2-(((S)-3,3-difluoro-1-formylpiperidin-4-yl)oxy)-5-(4-((4-(S-methylsulfonimidoyl)phenyl)amino)-1,3,5-triazin-2-yl)benzonitrile]
0.016 µM	0.219 µM	0.014 µM	–	C[C@H](Oc1ccc(-c2ncnc(Nc3ccc(N4CCN(C5COC5)CC4)cc3)n2)cc1C#N)C1CCOCC1 [Example 282, (S)-5-(4-((4-(4-(oxetan-3-yl)piperazin-1-yl)phenyl)amino)-1,3,5-triazin-2-yl)-2-(1-(tetrahydro-2H-pyran-4-yl)ethoxy)benzonitrile]
–	0.065 µM	0.004 µM	0.002 µM	C[C@H]1CN(C(=O)CO)CC(F)(F)[C@H]1Oc1ccc(-c2ncnc(Nc3ccc(N4CCN(C5COC5)CC4)cc3)n2)cc1C#N (relative stereo) [Example 430, Cis 2-((3,3-difluoro-1-(2-hydroxyacetyl)-5-methylpiperidin-4-yl)oxy)-5-(4-((4-(4-(oxetan-3-yl)piperazin-1-yl)phenyl)amino)-1,3,5-triazin-2-yl)benzonitrile]
